{"source": "patent US9610233B2", "about": "“Hair thickening compositions and methods of use” (The Procter & Gamble Company, priority 2013, dated 2017)", "key": {"[1]": {"test": "Viscosity Test Method (cone and plate viscometer/rheometer)", "type": "physicochemical", "details": "Sepigel 1.89%", "text": "The hair care composition may have a viscosity of from about 2,000 cps to about 20,000 cps, alternatively from about 10,000 cps to about 15,000 cps. The viscosity of the hair care composition may be determined by a cone and plate viscometer/rheometer which measures the viscous drag resulting from the sample material contained in the gap between a rotating cone and a stationary plate. The geometry of the cone and plate may be such that the entire sample is subjected to a uniform shear rate. A Brookfield Rheometer RS, with Cone C75-1, 26.7° C. temperature, 2.5 mL sample size, at 2 res/sec for 3 minutes may be used."}, "[2]": {"test": "Measurement of Average Thickness Increase of single hair fibers", "details": "Sepigel 1.89%, Example 1 formula, fibers treated 10 minutes, dried overnight", "experimental": "Measurement of Average Thickness Increase\n• 1) Asian or Caucasian hair fibers (low-lift general population) are soaked in deionized water for 10 minutes, and allowed to equilibrate overnight in at Controlled Temperature and Humidity room (20 C, 50 RH). • 2) The single hair fibers are imaged with microscope and the diameter is measured using software for baseline measurement. • 3) The hair fibers are then treated with the hair care composition for 10 minutes to allow for saturation. The fibers are then removed and allowed to equilibrate and dry overnight. • 4) The next day, the fibers are imaged and measured for a final reading. For each experiment, untreated control and product treatment controls are ran, and at least 5 fibers are measured per treatment. • 5) In order to measure increase in thickness as a function of treatment, the […]. The average thickness increase is reported in the Table above, with measurements reported in micrometers. Viscosity Test Method"}}}
{"smiles": "Oc1cccc(O)c1", "note": "[Resorcinol, 1,3-Dihydroxybenzene]", "values": [{"measurement": "Viscosity", "setting": "[1]; composition with Resorcinol 0.5%", "value": 14767, "unit": "cps"}, {"measurement": "Viscosity", "setting": "[1]; composition with Resorcinol 1%", "value": 12115, "unit": "cps"}, {"measurement": "Viscosity", "setting": "[1]; composition with Resorcinol 2%", "value": 13812, "unit": "cps"}, {"measurement": "Viscosity", "setting": "[1]; composition with Resorcinol 5%", "value": 12047, "unit": "cps"}, {"measurement": "Viscosity", "setting": "[1]; composition with Resorcinol 8%", "value": 10308, "unit": "cps"}, {"measurement": "Average Thickness Increase", "setting": "[2]; Resorcinol 0.5%", "value": 4.2, "unit": "μm"}, {"measurement": "Average Thickness Increase", "setting": "[2]; Resorcinol 1%", "value": 3.9, "unit": "μm"}, {"measurement": "Average Thickness Increase", "setting": "[2]; Resorcinol 2%", "value": 13.5, "unit": "μm"}, {"measurement": "Average Thickness Increase", "setting": "[2]; Resorcinol 5%", "value": 10.7, "unit": "μm"}, {"measurement": "Average Thickness Increase", "setting": "[2]; Resorcinol 8%", "value": 10.3, "unit": "μm"}]}
